Assay results: patent US8637549B2, “Pyridons as PDK1 inhibitors” (Boehringer Ingelheim International GmbH, priority 2008, dated 2014)

Molecular target: T1, His6-PDK1 (aa 52-556) (Homo sapiens, UniProt O15530)
T1 construct: 15 μL His6-PDK1 (aa 52-556) 3.33 ng/well) and PDKtide; host or cells: baculovirus-infected insect cells
T1 sequence (O15530 52-556): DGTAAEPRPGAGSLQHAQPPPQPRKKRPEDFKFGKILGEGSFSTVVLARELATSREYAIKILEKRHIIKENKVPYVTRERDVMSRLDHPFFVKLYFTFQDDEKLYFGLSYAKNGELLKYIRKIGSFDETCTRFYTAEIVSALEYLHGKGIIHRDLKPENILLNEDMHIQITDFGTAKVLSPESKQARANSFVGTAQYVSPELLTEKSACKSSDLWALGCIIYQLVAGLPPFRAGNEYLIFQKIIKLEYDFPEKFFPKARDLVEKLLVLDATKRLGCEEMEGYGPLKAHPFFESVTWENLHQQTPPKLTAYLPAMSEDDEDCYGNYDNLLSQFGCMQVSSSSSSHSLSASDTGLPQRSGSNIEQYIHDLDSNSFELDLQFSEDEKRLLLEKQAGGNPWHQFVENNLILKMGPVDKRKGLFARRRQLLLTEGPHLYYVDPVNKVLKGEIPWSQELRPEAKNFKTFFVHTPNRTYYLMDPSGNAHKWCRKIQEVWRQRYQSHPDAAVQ
Experiment: PDK1 kinase assay III (with Tween 20)
Assay type: biochemical
Conditions: 10 μM compound, residual enzyme activity relative to DMSO control, unmarked values, read-out: % CTL
Procedure: Another PDK1 assay was developed which by comparison with PDK1 assay 1 additionally contains Tween 20:
The following components are combined in a well of a 96-well round-based dish (Messrs. Greiner bio-one, No. 650101): • 15 μL of compound to be tested in varying concentrations (e.g. Starting at 10 μM, and diluted in steps of 1:5) in APT buffer (50 mM tris/C1 pH7.5; 0.05% β-mercaptoethanol; 10 mM Mg-acetate; 0.0166% Tween 20; 3.33% DMSO) • 15 μL His6-PDK1 (aa 52-556) 3.33 ng/well) and PDKtide (KTFCGTPEYLAPEVRRE […]), synthesised by Pepceuticals Limited, Nottingham, United Kingdom; 25 μM final concentration); His6-PDK1 and PDKtide are together diluted accordingly in assay buffer (50 mM tris pH 7.5, 0.05% β-mercaptoethanol, 10 mM Mg-acetate); PDKtide is present in this mixture as an 83.3 μM solution. These 30 μL are routinely incubated for 30 min at RT. • 20 μL ATP solution (25 μM ATP with 1.0 μCi/well gamma-P33-ATP). The final concentration of Tween 20 is 0.005%.
The reaction is started by adding the ATP solution and the mixture is incubated for 90 min at ambient temperature; at the start of the reaction the dishes are shaken gently. The reaction is stopped by the addition of 50 μL/well of 500 mM phosphoric acid (H3PO4) and incubated for about 20 min at ambient temperature. The precipitate is transferred by harvesting onto filter plates (96-well microtitre filter plate: UniFilter GF/C; Messrs Perkin Elmer; No. 6005174), then washed 6 times with 50 mM H3PO4 and dried at 60° C. Then the plate is stuck down with sealing tape, 25 μL/well of scintillation solution (Microscint 0; Messrs. Perkin Elmer; No. 6013611) are added and the amount of P33 precipitated is measured using the Wallac Betacounter. The measured data are evaluated using Graphpad Prism software.
The % CTL values indicate the residual activity of the enzyme after the addition of the inhibitory compound in the solvent DMSO in relation to the enzyme activity in the solvent DMSO without the addition of a compound (control). The majority of the values were determined using the PDK1 kinase assay III described hereinbefore. The values marked with an asterisk (*) were determined using the PDK1 kinase assay II described hereinbefore.

Point of comparison: `Cn1cncc1Cn1cccc(C(=O)NC/C=C/c2ccc3c(c2)NC(=O)/C3=C\c2cnc[nH]2)c1=O` [I-26, N-{(2E)-3-[(3Z)-3-(1H-imidazol-5-ylmethylidene)-2-oxo-2,3-dihydro-1H-indol-6-yl]prop-2-en-1-yl}-1-[(1-methyl-1H-imidazol-5-yl)methyl]-2-oxo-1,2-dihydropyridine-3-carboxamide], remaining activity at 10 µM 34.1%. Against it:
- O=C1Nc2cc(/C=C/CNC(=O)c3cccn(Cc4ccc(Cl)nc4)c3=O)ccc2/C1=C/c1cnc[nH]1 [I-1, 1-[(6-chloropyridin-3-yl)methyl]-N-{(2E)-3-[(3Z)-3-(1H-imidazol-5-ylmethylidene)-2-oxo-2,3-dihydro-1H-indol-6-yl]prop-2-en-1-yl}-2-oxo-1,2-dihydropyridine-3-carboxamide] — lower, 16.8%
- O=C1Nc2cc(/C=C/CNC(=O)c3cccn(Cc4ccc(Cl)nc4)c3=O)ccc2/C1=C/c1ccc[nH]1 [I-2, 1-[(6-chloropyridin-3-yl)methyl]-2-oxo-N-{(2E)-3-[(3Z)-2-oxo-3-(1H-pyrrol-2-ylmethylidene)-2,3-dihydro-1H-indol-6-yl]prop-2-en-1-yl}-1,2-dihydropyridine-3-carboxamide] — lower, 21.4%
- CN(C)CCNC(=O)c1cccc(-c2c[nH]c(/C=C3\C(=O)Nc4cc(/C=C/CNC(=O)c5cccn(Cc6ccc(Cl)nc6)c5=O)ccc43)c2)c1 [I-3, 1-[(6-chloropyridin-3-yl)methyl]-N-{(2E)-3-[(3Z)-3-{[4-(3-{[2-(dimethylamino)-ethyl]carbamoyl}phenyl)-1H-pyrrol-2-yl]methylidene}-2-oxo-2,3-dihydro-1H-indol-6-yl]prop-2-en-1-yl}-2-oxo-1,2-dihydropyridine-3-carboxamide] — lower, 18.9%
- O=C1Nc2cc(/C=C/CNC(=O)c3cccn(Cc4cccnc4)c3=O)ccc2/C1=C/c1ccc[nH]1 [I-4, 2-oxo-N-{(2E)-3-[(3Z)-2-oxo-3-(1H-pyrrol-2-ylmethylidene)-2,3-dihydro-1H-indol-6-yl]prop-2-en-1-yl}-1-(pyridin-3-ylmethyl)-1,2-dihydropyridine-3-carboxamide] — lower, 18.6%
- O=C1Nc2cc(/C=C/CNC(=O)c3cccn(Cc4ccncc4)c3=O)ccc2/C1=C/c1ccc[nH]1 [I-5, 2-oxo-N-{(2E)-3-[(3Z)-2-oxo-3-(1H-pyrrol-2-ylmethylidene)-2,3-dihydro-1H-indol-6-yl]prop-2-en-1-yl}-1-(pyridin-4-ylmethyl)-1,2-dihydropyridine-3-carboxamide] — higher, 39.6%
- O=C1Nc2cc(/C=C/CNC(=O)c3cccn(Cc4ccccn4)c3=O)ccc2/C1=C/c1ccc[nH]1 [I-6, 2-oxo-N-{(2E)-3-[(3Z)-2-oxo-3-(1H-pyrrol-2-ylmethylidene)-2,3-dihydro-1H-indol-6-yl]prop-2-en-1-yl}-1-(pyridin-2-ylmethyl)-1,2-dihydropyridine-3-carboxamide] — lower, 20.1%
- O=C1Nc2cc(/C=C/CNC(=O)c3cccn(Cc4cccnc4)c3=O)ccc2/C1=C/c1cnc[nH]1 [I-7, N-{(2E)-3-[(3Z)-3-(1H-imidazol-5-ylmethylidene)-2-oxo-2,3-dihydro-1H-indol-6-yl]prop-2-en-1-yl}-2-oxo-1-(pyridin-3-ylmethyl)-1,2-dihydropyridine-3-carboxamide] — lower, 14.5%
- O=C1Nc2cc(/C=C/CNC(=O)c3cccn(Cc4ccncc4)c3=O)ccc2/C1=C/c1cnc[nH]1 [I-8, N-{(2E)-3-[(3Z)-3-(1H-imidazol-5-ylmethylidene)-2-oxo-2,3-dihydro-1H-indol-6-yl]prop-2-en-1-yl}-2-oxo-1-(pyridin-4-ylmethyl)-1,2-dihydropyridine-3-carboxamide] — lower, 25.1%
- O=C1Nc2cc(/C=C/CNC(=O)c3cccn(Cc4ccccn4)c3=O)ccc2/C1=C/c1cnc[nH]1 [I-9, N-{(2E)-3-[(3Z)-3-(1H-imidazol-5-ylmethylidene)-2-oxo-2,3-dihydro-1H-indol-6-yl]prop-2-en-1-yl}-2-oxo-1-(pyridin-2-ylmethyl)-1,2-dihydropyridine-3-carboxamide] — lower, 17.7%
- O=C1Nc2cc(/C=C/CNC(=O)c3cccn(CC4CCCCC4)c3=O)ccc2/C1=C/c1ccc[nH]1 [I-13, 1-(cyclohexylmethyl)-2-oxo-N-{(2E)-3-[(3Z)-2-oxo-3-(1H-pyrrol-2-ylmethylidene)-2,3-dihydro-1H-indol-6-yl]prop-2-en-1-yl}-1,2-dihydropyridine-3-carboxamide] — lower, 25.7%
- Cc1ccc(Cn2cccc(C(=O)NC/C=C/c3ccc4c(c3)NC(=O)/C4=C\c3cnc[nH]3)c2=O)cn1 [I-24, N-{(2E)-3-[(3Z)-3-(1H-imidazol-5-ylmethylidene)-2-oxo-2,3-dihydro-1H-indol-6-yl]prop-2-en-1-yl}-1-[(6-methylpyridin-3-yl)methyl]-2-oxo-1,2-dihydropyridine-3-carboxamide] — lower, 20.1%
- O=C1Nc2cc(/C=C/CNC(=O)c3cccn(CC4CCCCC4)c3=O)ccc2/C1=C/c1cnc[nH]1 [I-25, 1-(cyclohexylmethyl)-N-{(2E)-3-[(3Z)-3-(1H-imidazol-5-ylmethylidene)-2-oxo-2,3-dihydro-1H-indol-6-yl]prop-2-en-1-yl}-2-oxo-1,2-dihydropyridine-3-carboxamide] — lower, 15.1%
- Cn1cnc(Cn2cccc(C(=O)NC/C=C/c3ccc4c(c3)NC(=O)/C4=C\c3cnc[nH]3)c2=O)c1 [I-27, N-{(2E)-3-[(3Z)-3-(1H-imidazol-5-ylmethylidene)-2-oxo-2,3-dihydro-1H-indol-6-yl]prop-2-en-1-yl}-1-[(1-methyl-1H-imidazol-4-yl)methyl]-2-oxo-1,2-dihydropyridine-3-carboxamide] — higher, 47.7%
- CN(C)Cc1ccc(Nc2ncc3cc(C#CCNC(=O)c4cccn(Cc5ccc(C(F)(F)F)nc5)c4=O)ccc3n2)cc1 [II-6, N-{3-[2-({4-[(dimethylamino)methyl]phenyl}amino)quinazolin-6-yl]prop-2-yn-1-yl}-2-oxo-1-{[6-(trifluoromethyl)pyridin-3-yl]methyl}-1,2-dihydropyridine-3-carboxamide] — lower, 16%
- CN1CCC(Nc2ccc(Nc3ncc4cc(C#CCNC(=O)c5cccn(Cc6ccc(C(F)(F)F)nc6)c5=O)ccc4n3)cc2F)CC1 [II-7, N-{3-[2-({3-fluoro-4-[(1-methylpiperidin-4-yl)amino]phenyl}amino)quinazolin-6-yl]prop-2-yn-1-yl}-2-oxo-1-{[6-(trifluoromethyl)pyridin-3-yl]methyl}-1,2-dihydropyridine-3-carboxamide] — lower, 18.6%
- CN(C)Cc1ccc(Nc2ncc3cc(/C=C/CNC(=O)c4cccn(Cc5cccnc5)c4=O)ccc3n2)cc1 [III-12, N-{(2E)-3-[2-({4-[(dimethylamino)methyl]phenyl}amino)quinazolin-6-yl]prop-2-en-1-yl}-2-oxo-1-(pyridin-3-ylmethyl)-1,2-dihydropyridine-3-carboxamide] — lower, 18.3%
- CN(C)Cc1ccc(Nc2ncc3cc(/C=C/CNC(=O)c4cccn(Cc5ccc(Cl)nc5)c4=O)ccc3n2)cc1 [III-13, 1-[(6-chloropyridin-3-yl)methyl]-N-{(2E)-3-[2-({4-[(dimethylamino)methyl]-phenyl}amino)quinazolin-6-yl]prop-2-en-1-yl}-2-oxo-1,2-dihydropyridine-3-carboxamide] — lower, 13.6%
- CN1CCC(Nc2ccc(Nc3ncc4cc(/C=C/CNC(=O)c5cccn(Cc6ccc(C(F)(F)F)nc6)c5=O)ccc4n3)cc2F)CC1 [III-14, N-{(2E)-3-[2-({3-fluoro-4-[(1-methylpiperidin-4-yl)amino]phenyl}amino)quinazolin-6-yl]prop-2-en-1-yl}-2-oxo-1-{[6-(trifluoromethyl)pyridin-3-yl]methyl}-1,2-dihydropyridine-3-carboxamide] — lower, 17.2%
